Reference: publication PMC7473772 (eLife, 2020)
Several values for one entry are separate records, joined by “and”; a condition that tells them apart may be missing. Equal values may be shown once. Read-outs that look alike come from different tables or passages of the source.

Tests used:
[1] = tested on: tbaqp2/tbaqp3 null cells expressing TbAQP2^I190T; assay type: cell-based, Trypanosoma brucei brucei
[2] = target: TbAQP2^L84W/L118W (Trypanosoma brucei brucei, UniProt Q6ZXT3, L118W/L84W); experiment: [3H]-pentamidine transport; assay type: cell-based; conditions: AQP2 mutant L84W/118W; n=3
[3] = tested on: tbaqp2/tbaqp3 null cells expressing TbAQP2 L218M; experiment: microbe, parasite or virus in culture; assay type: cell-based, Trypanosoma brucei brucei; conditions: Trypanosoma brucei
[4] = target: TbAQP2^L264R (Trypanosoma brucei brucei, UniProt Q6ZXT3, L264R); experiment: [3H]-pentamidine transport; assay type: cell-based; conditions: 30 nM [3H]-pentamidine
[5] = target: TbAQP2 L218W (Trypanosoma brucei brucei, UniProt Q6ZXT3, L218W); experiment: [3H]-pentamidine transport; assay type: cell-based; conditions: AQP2 mutant L218W; n=4
[6] = tested on: tbaqp2/tbaqp3 null cells expressing TbAQP2 L218W; experiment: microbe, parasite or virus in culture; assay type: cell-based, Trypanosoma brucei brucei
[7] = tested on: tbaqp2/tbaqp3 null cells expressing TbAQP2^S131P/S263A; assay type: cell-based, Trypanosoma brucei brucei
[8] = tested on: tbaqp2/tbaqp3 null cells expressing TbAQP3^W102I/R256L/Y250L; assay type: cell-based, Trypanosoma brucei brucei
[9] = tested on: tbaqp2/tbaqp3 null cells expressing TbAQP2WT; experiment: microbe, parasite or virus in culture; assay type: cell-based, Trypanosoma brucei brucei
[10] = tested on: tbaqp1-2-3 null cells expressing TbAQP2 position 84, 118 and 218 Trp and Met mutants; experiment: Drug sensitivity assay (resazurin), pentamidine and SHAM; assay type: cell-based, Trypanosoma brucei brucei
[11] = tested on: tbaqp2/tbaqp3 null cells expressing TbAQP2 L84M; experiment: microbe, parasite or virus in culture; assay type: cell-based, Trypanosoma brucei brucei; conditions: Trypanosoma brucei
[12] = tested on: tbaqp2/tbaqp3 null cells expressing TbAQP2^I110W/L264R; assay type: cell-based, Trypanosoma brucei brucei
[13] = read-out: Alamar blue EC50, MEAN
[14] = Trypanosoma brucei, read-out: Alamar blue EC50, MEAN
[15] = read-out: Alamar blue EC50, single repeats

Sequence of TbAQP2^L84W/L118W (Q6ZXT3 whole entry L84W/L118W): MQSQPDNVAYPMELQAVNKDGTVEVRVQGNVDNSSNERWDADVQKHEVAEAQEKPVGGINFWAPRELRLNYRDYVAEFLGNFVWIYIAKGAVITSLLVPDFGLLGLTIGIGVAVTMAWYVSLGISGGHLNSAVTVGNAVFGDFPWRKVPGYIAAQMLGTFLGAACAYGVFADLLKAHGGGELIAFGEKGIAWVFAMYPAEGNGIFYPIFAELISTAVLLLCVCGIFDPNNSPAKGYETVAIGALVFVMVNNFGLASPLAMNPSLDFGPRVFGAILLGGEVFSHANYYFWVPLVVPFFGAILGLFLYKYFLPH
Sequence of TbAQP2 L218W (Q6ZXT3 whole entry L218W): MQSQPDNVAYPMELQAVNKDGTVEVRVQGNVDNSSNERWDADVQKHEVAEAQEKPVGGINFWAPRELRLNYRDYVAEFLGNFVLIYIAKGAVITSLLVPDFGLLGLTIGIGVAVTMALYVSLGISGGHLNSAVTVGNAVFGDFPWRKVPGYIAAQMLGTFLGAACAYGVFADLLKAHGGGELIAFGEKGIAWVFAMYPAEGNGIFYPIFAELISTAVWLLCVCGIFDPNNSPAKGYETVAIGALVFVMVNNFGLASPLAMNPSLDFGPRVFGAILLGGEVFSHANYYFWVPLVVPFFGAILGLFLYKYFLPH
Sequence of TbAQP2^L264R (Q6ZXT3 whole entry L264R): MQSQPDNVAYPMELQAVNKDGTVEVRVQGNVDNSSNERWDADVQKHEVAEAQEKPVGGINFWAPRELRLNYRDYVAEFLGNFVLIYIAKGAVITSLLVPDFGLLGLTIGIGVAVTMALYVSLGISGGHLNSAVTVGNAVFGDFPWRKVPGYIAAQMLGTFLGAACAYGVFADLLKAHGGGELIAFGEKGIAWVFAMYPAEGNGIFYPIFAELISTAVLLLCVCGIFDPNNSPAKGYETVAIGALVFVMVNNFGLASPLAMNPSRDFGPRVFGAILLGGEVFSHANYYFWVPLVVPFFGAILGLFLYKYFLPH

**Q.** With `N=C(N)c1ccc(OCCCCCOc2ccc(C(=N)N)cc2)cc1` [Pentamidine] as the compound, how does the “EC50 as percent of AQP2/3 null EC50, MEAN” value (“EC50 as percent” for short) [1] read?
**A.** The value was 6.89%.

**Q.** What about the “Pentamidine transport rate AVG” value [2] of the same compound?
**A.** The value was 0.0002985 pmol/10E7 cells/s.

**Q.** What about the EC50 [3, 13] of the same compound?
**A.** Its EC50 is 0.63 nM.

**Q.** And the EC50 ([3]; read-out: EC50 AVG)?
**A.** Its EC50 is 0.63 nM.

**Q.** And the Pentamidine transport rate [4]?
**A.** Its Pentamidine transport rate is 0.00017 pmol/10E7 cells/s.

**Q.** And the “Pentamidine transport rate AVG” value [5]?
**A.** The value was 0.002093 pmol/10E7 cells/s.

**Q.** What about the EC50 [6, 14] of the same compound?
**A.** Its EC50 is 4.39 nM.

**Q.** What about the EC50 ([6]; Trypanosoma brucei, read-out: Alamar blue EC50, single repeats) of the same compound?
**A.** The EC50 was 4 nM.

**Q.** And the EC50 ([6]; Trypanosoma brucei, read-out: EC50 AVG)?
**A.** Its EC50 is 4.4 nM.

**Q.** And the EC50 [6, 15]?
**A.** Its EC50 is 3.9 nM and 5.3 nM.

**Q.** And the “EC50, percent of AQP2/3 null EC50” value [7]?
**A.** Its value is 1.92%.

**Q.** And the “EC50 as percent” value [8]?
**A.** Its value is 31.94%.

**Q.** What about the “EC50, percent of AQP2/3 null EC50” value [9] of the same compound?
**A.** The value was 0.08% and 0.0842% and 1.40% and 0.16%.

**Q.** And the EC50 [9, 14]?
**A.** The EC50 was 0.84 nM.

**Q.** And the EC50 [9, 13]?
**A.** The EC50 was 1.61 nM.

**Q.** And the EC50 [9, 15]?
**A.** The EC50 was 1.5 nM.

**Q.** What about the EC50 ([10]; +L84M in aqp1-3 triple KO, read-out: Alamar blue EC50, single repeats) of the same compound?
**A.** Its EC50 is 0.8 nM and 0.9 nM.

**Q.** What about the EC50 ([10]; +L84W in aqp1-3 triple KO, read-out: Alamar blue EC50, single repeats) of the same compound?
**A.** Its EC50 is 18.7 nM and 15.3 nM.

**Q.** What about the EC50 ([10]; +L84W/L118W in aqp1-3 triple KO, read-out: Alamar blue EC50, single repeats) of the same compound?
**A.** The EC50 was 65.7 nM.

**Q.** And the EC50 ([10]; +L118M in aqp1-3 triple KO, read-out: Alamar blue EC50, single repeats)?
**A.** Its EC50 is 27.8 nM and 29.4 nM.

**Q.** What about the EC50 ([10]; +L118W in aqp1-3 triple KO, read-out: Alamar blue EC50, single repeats) of the same compound?
**A.** The EC50 was 27.1 nM and 25.8 nM.

**Q.** And the EC50 ([10]; +L218W in aqp1-3 triple KO, read-out: Alamar blue EC50, single repeats)?
**A.** Its EC50 is 3.9 nM and 5.3 nM.

**Q.** What about the EC50 ([10]; Trypanosoma brucei, +L84M in aqp1-3 triple KO, 3 repeats, read-out: Alamar blue EC50, MEAN) of the same compound?
**A.** The EC50 was 0.77 nM.

**Q.** What about the EC50 ([10]; Trypanosoma brucei, +L84M in aqp1-3 triple KO, read-out: Alamar blue EC50, single repeats) of the same compound?
**A.** The EC50 was 0.65 nM.

**Q.** What about the EC50 ([10]; Trypanosoma brucei, +L84W in aqp1-3 triple KO, 3 repeats, read-out: Alamar blue EC50, MEAN) of the same compound?
**A.** Its EC50 is 16.1 nM.

**Q.** And the EC50 ([10]; Trypanosoma brucei, +L84W in aqp1-3 triple KO, read-out: Alamar blue EC50, single repeats)?
**A.** Its EC50 is 14.4 nM.

**Q.** What about the EC50 ([10]; Trypanosoma brucei, +L84W/L118W in aqp1-3 triple KO, read-out: Alamar blue EC50, single repeats) of the same compound?
**A.** The EC50 was 53.4 nM.

**Q.** And the EC50 ([10]; Trypanosoma brucei, +L118M in aqp1-3 triple KO, 3 repeats, read-out: Alamar blue EC50, MEAN)?
**A.** The EC50 was 28 nM.

**Q.** And the EC50 ([10]; Trypanosoma brucei, +L118M in aqp1-3 triple KO, read-out: Alamar blue EC50, single repeats)?
**A.** The EC50 was 26.8 nM.

**Q.** And the EC50 ([10]; Trypanosoma brucei, +L118W in aqp1-3 triple KO, 3 repeats, read-out: Alamar blue EC50, MEAN)?
**A.** Its EC50 is 26.6 nM.

**Q.** And the EC50 ([10]; Trypanosoma brucei, +L118W in aqp1-3 triple KO, read-out: Alamar blue EC50, single repeats)?
**A.** The EC50 was 26.9 nM.

**Q.** And the EC50 ([10]; Trypanosoma brucei, +L218M in aqp1-3 triple KO, 3 repeats, read-out: Alamar blue EC50, MEAN)?
**A.** Its EC50 is 0.63 nM.

**Q.** And the EC50 ([10]; Trypanosoma brucei, +L218W in aqp1-3 triple KO, 3 repeats, read-out: Alamar blue EC50, MEAN)?
**A.** Its EC50 is 4.39 nM.

**Q.** What about the EC50 ([10]; Trypanosoma brucei, +L218W in aqp1-3 triple KO, read-out: Alamar blue EC50, single repeats) of the same compound?
**A.** Its EC50 is 4 nM.

**Q.** And the EC50 [11, 13]?
**A.** The EC50 was 0.43 nM.

**Q.** And the EC50 ([11]; read-out: EC50 AVG)?
**A.** The EC50 was 0.43 nM.

**Q.** What about the “EC50 as percent” value [12] of the same compound?
**A.** The value was 101.41%.
